From patent publication US9375409B2, “Use of polyunsaturated ketones for the treatment of psoriasis” (Avexxin AS, priority 2002, dated 2016)
Like-named read-outs stand apart in the source and are kept apart here.

How the values were obtained:
HaCaT cells = test: MTT assay (toxicity); type: cell-based, human
Experimental: Confluent cells were pretreated with inhibitors in serum free medium for 1 hour, and then treated with stimulating agent for 1 hour. Conversion of substrate [3-(4, 5-dimethylthiazol-2-yl)-2, 5-diphenyl tetrazolium bromide] was measured as optical density at 580 nm after 4 hours according to Mosmann [Mosmann T, J. Immunol. Methods 65, 55-63, 1983]. For each concentration of inhibitor nine parallels were measured.

[1] = molecular target: recombinant human IV PLA2 (Homo sapiens, UniProt P47712); test: biochemical; settings: for inhibition at 5 µM: read-out: inhibition of IV PLA2 enzyme activity
[2] = system: PGE2 production in HaCaT cells; test: A23187-induced PGE2 release in LPS-stimulated HaCaT cells (PGE2 EIA); type: cell-based; settings: Homo sapiens, 0.5 h, read-out: IC50 for inhibiting A23187-induced PGE2 release
[3] = read-out: IC50 for IV PLA2 inhibition

recombinant human IV PLA2, sequence (P47712 whole entry): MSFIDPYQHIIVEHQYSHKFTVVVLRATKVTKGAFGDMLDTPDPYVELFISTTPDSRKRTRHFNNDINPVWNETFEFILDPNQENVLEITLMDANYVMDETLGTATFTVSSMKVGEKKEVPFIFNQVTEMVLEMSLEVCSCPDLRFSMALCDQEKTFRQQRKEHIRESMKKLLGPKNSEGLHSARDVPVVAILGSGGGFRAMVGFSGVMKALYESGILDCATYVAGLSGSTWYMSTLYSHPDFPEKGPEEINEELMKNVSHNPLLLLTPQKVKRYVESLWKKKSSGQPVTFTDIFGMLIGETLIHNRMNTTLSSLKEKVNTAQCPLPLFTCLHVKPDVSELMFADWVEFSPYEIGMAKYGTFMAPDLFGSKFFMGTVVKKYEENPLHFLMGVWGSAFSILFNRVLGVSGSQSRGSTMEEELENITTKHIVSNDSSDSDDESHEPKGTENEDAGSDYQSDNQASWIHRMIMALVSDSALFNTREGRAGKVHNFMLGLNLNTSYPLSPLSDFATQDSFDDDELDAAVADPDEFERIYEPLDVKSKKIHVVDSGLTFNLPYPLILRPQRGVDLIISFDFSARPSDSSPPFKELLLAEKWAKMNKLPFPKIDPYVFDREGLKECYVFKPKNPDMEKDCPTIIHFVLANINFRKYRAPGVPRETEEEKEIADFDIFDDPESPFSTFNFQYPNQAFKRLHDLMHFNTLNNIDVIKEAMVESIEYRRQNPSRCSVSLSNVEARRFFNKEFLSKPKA

`CNc1ccc2oc(C[C@H]3O[C@@]4(CC[C@H]3C)O[C@H]([C@H](C)C(=O)c3ccc[nH]3)[C@H](C)C[C@H]4C)nc2c1C(=O)O` [A23187] was tested, and the “toxic concentration by MTT assay” value (HaCaT cells) was “higher than 10 μM”.

`CCCCC/C=C\C/C=C\C/C=C\C/C=C\CCCC(=O)C(F)(F)F` [AACOCF3, reference compound] showed an IC50 [1] of 5.8 ± 1.9 µM and an inhibition at 5 µM [1] of 75 to 80%.

`CC/C=C\C/C=C\C/C=C\C/C=C\C/C=C\C/C=C\CCC(=O)C(F)(F)F` [DHACOCF3] showed an IC50 [1, 3] of 21.3 ± 1.5 µM and an inhibition at 5 µM [1] of 30%.

In the case of `CC/C=C\C/C=C\C/C=C\C/C=C\C/C=C\CCCC(=O)C(F)(F)F` [EPACOCF3], the IC50 [1, 3] is reported as 2.9 ± 1.9 µM, the inhibition at 5 µM [1] is reported as 75 to 80% and the IC50 ([2]; HaCaT) is reported as 180 nM.

`CC/C=C\C/C=C\C/C=C\C/C=C\C/C=C\CCSCC(=O)C(F)(F)F` [EPASCOCF3] was tested, and the IC50 [1, 3] was 3.5 µM and the inhibition at 5 µM [1] was 75 to 80%.

Molecule `CS(=O)(=O)Nc1ccc([N+](=O)[O-])cc1OC1CCCCC1` [NS-398, reference compound] has an IC50 ([2]; LPS-stimulated HaCaT cells, inhibitor 0.2-25 μM for 30 min, FIG. 4) of 240 nM.
